In patent publication US10385069B2, “Imidazo[2,1-B]thiazole and 5,6-dihydroimidazo[2,1-B]thiazole derivatives useful as S100-inhibitors” (Active Biotech AB, priority 2015, dated 2019) one finds IC50 data, which are given here for 26 compounds.

For the assay, the target named is T1, interaction between biotinylated human S100A9 and human RAGE-Fc (Homo sapiens, UniProt P06702).
T1 construct: made in house; host or cells: E. coli
T1 sequence (P06702 1-114): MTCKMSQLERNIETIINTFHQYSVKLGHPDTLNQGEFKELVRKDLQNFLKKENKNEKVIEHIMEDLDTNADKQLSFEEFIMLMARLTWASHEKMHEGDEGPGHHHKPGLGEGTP
Nature of the assay: AlphaScreen inhibition assay, biot-hS100A9:hRAGE-Fc. It is filed as binding. The conditions noted are these: biot-hS100A9 pre-incubated with compound 1 h, assay buffer with CaCl2 and ZnCl2. An excerpt: Inhibition Assay, Biot-hS100A9:hRAGE-Fc
The AlphaScreen (Amplified Luminescent Proximity Homogeneous Assay) contains two types of beads, Alpha Donor beads and Acceptor beads (PerkinElmer). Upon laser excitation at 680 nm a photosensitizer in the Donor bead converts ambient oxygen to a more excited singlet state. The singlet oxygen molecule diffuses (maximum 200 nm) to react with a thioxene derivative in the Acceptor bead and generates a chemiluminescence reaction. Fluorophores in the Acceptor bead subsequently emit light at 520-620 nm which can be detected in the EnVision® Multilabel plate Reader (PerkinElmer). The beads are light sensitive and all work with the beads is performed under subdued light conditions or using green filters on light sources (Roscolux Chroma Green #389, Rosco).
In the AlphaScreen Inhibition Assay described here, protein A (Staphylococcus aureus) conjugated Acceptor beads are used together with streptavidin coated Donor beads (Perkin Elmer 6760617M). The Acceptor beads are pre-incubated with Fc-tagged recombinant human RAGE (rhRAGE-Fc) allowing binding of the rhRAGE-Fc to protein A on the beads. Biotinylated human S100A9 (biot-hS100A9) is pre-incubated with the low molecular test compounds. The pre-mixes are then added to the wells of a micro-plate and incubated allowing interaction between biot-hS100A9 and rhRAGE-Fc. Subsequent addition of streptavidin coated Donor beads causes binding of the streptavidin to the biotinylated hS100A9. After an additional incubation the signal is measured.
Without inhibitory compounds, the interaction of biot-hS100A9 to rhRAGE-Fc will bring the Acceptor and Donor beads in close proximity thus generating a high signal. With an inhibitor present the complex will not form resulting in a decreased signal. The assay is illustrated in FIG. 1.
Chemicals and Reagents. • AlphaScreen® General IgG (Protein A) Detection Kit, (PerkinElmer 6760617M) • HBS-P buffer (GE Healthcare, BR-1003-68) • HBS-N buffer (GE Healthcare, BR-1003-69) • CaCl2 in HBS-P • ZnCl2 in Milli-Q water • DMSO • Biotinylated hS100A9, (biotinylated via cystein by EZ-link Iodoacetyl-PEG2-Biotin reagent (Pierce no. 21334), in HBS-N • rhRAGE-Fc (R&D Systems, 1145-RG-50), in HBS-P
The AlphaScreen assay method is used for screening of the inhibitory effect of different compound samples at fixed concentrations or for IC50 determination by varying the compound concentrations. Samples of test compounds and references are prepared from solutions in DMSO. Relevant reference inhibitors and DMSO are used as controls for defined inhibition and non-inhibition, respectively in the assay. The percent inhibition in assay for test compounds and references are calculated by comparing their obtained assay signals with the signal values for the control with only DMSO (no compound).
Assay concentration of biotinylated hS100A9 and rhRAGE-Fc are batch dependent, and are determined and defined by separate cross-titration experiments using this AlphaScreen inhibition method to verify the optimal setup regarding signal strength and achievement of a defined inhibition with relevant reference compounds. The Final assay concentrations of Acceptor and Donor beads are 20 μg/mL.
Assay buffer is prepared by adding CaCl2 and ZnCl2 to HBS-P and is used freshly prepared in the experiment.
Biotin-hS100A9 solution for the experiment is prepared by dilution of appropriate amount of stock solution biot-hS100A9 in assay buffer (with CaCl2 and ZnCl2) and incubation in room temperature for 30 minutes.
rhRAGE-Fc solution for the experiment is prepared by dilution appropriate amount of rhRAGE-Fc stock in assay buffer.
Protein A Acceptor beads are diluted in assay buffer and are added to an equal volume of the prepared diluted rhRAGE-Fc solution. The beads are light sensitive. The vial is covered with aluminum foil and incubated at room temperature in the dark until biot-hS100A9+compound incubation is finished (see below). […]
For orientation: In Alpha technology, singlet oxygen from a donor bead excites a nearby acceptor bead.
For `CC1(C)Cc2c(sc3nc(C(=O)NS(=O)(=O)CCCN4CCOCC4)cn23)C(C)(C)C1` [Example 55, 9,9,11,11-Tetramethyl-N-[3-(morpholin-4-yl)propanesulfonyl]-7-thia-2,5-diazatricyclo[6.4.0.0^2,6]dodeca-1(8),3,5-triene-4-carboxamide], the half-inhibitory concentration (IC50) is 550 nM. For `CC1(C)CCc2sc3nc(C(=O)NS(=O)(=O)CC(F)(F)F)cn3c2C1` [Example 57, 11,11-Dimethyl-N-(2,2,2-trifluoroethanesulfonyl)-7-thia-2,5-diazatricyclo[6.4.0.0^2,6]dodeca-1(8),3,5-triene-4-carboxamide] the value was 740 nM; for `CC(C)(C)C1CCc2c(sc3nc(C(=O)NC#N)cn23)C1` (centres unmarked) [Example 58, 10-tert-Butyl-N-cyano-7-thia-2,5-diazatricyclo[6.4.0.0^2,6]dodeca-1(8),3,5-triene-4-carboxamide], 640 nM. For `O=C(O)C1CN2C(=N1)Sc1c2ccc(Cl)c1Cl` (centres unmarked) [Example 185, 9,10-Dichloro-7-thia-2,5-diazatricyclo[6.4.0.0^2,6]dodeca-1(8),5,9,11-tetraene-4-carboxylic acid] the value was 450 nM. For `O=C(O)C(O)c1cn2c(n1)sc1c(Cl)c(Cl)ccc12` (centres unmarked) [Example 188, 2-{9,10-Dichloro-7-thia-2,5-diazatricyclo[6.4.0.0^2,6]dodeca-1(8),3,5,9,11-pentaen-4-yl}-2-hydroxyacetic acid], the half-maximal inhibitory concentration (IC50) turned out to be 2190 nM.

For the compound `COc1ccc(-c2c(C(=O)O)nc3sc4c(n23)CCC(C(C)(C)C)C4)cc1` (centres unmarked) [Example 190, 10-tert-Butyl-3-(4-methoxyphenyl)-7-thia-2,5-diazatricyclo[6.4.0.0^2,6]dodeca-1(8),3,5-triene-4-carboxylic acid], the IC50 is 1680 nM. For `Cc1c(C(=O)O)nc2sc3c(n12)CCC(C(C)(C)C)C3` (centres unmarked) [Example 195, 10-tert-Butyl-3-methyl-7-thia-2,5-diazatricyclo[6.4.0.0^2,6]dodeca-1(8),3,5-triene-4-carboxylic acid] the value was 240 nM; for `CC(C)(C)C1CCc2c(sc3nc(C(=O)O)c(NS(C)(=O)=O)n23)C1` (centres unmarked) [Example 196, 10-tert-Butyl-3-methanesulfonamido-7-thia-2,5-diazatricyclo[6.4.0.0^2,6]dodeca-1(8),3,5-triene-4-carboxylic acid], 490 nM; for `O=C(O)c1cn2c(n1)sc1c(Cl)ccc(Cl)c12` [Example 197, 9,12-Dichloro-7-thia-2,5-diazatricyclo[6.4.0.0^2,6]dodeca-1(8),3,5,9,11-pentaene-4-carboxylic acid], 1440 nM. For `O=C(O)c1cn2c(n1)sc1c(OC(F)(F)F)cccc12` [Example 198, 9-(Trifluoromethoxy)-7-thia-2,5-diazatricyclo[6.4.0.0^2,6]dodeca-1(8),3,5,9,11-pentaene-4-carboxylic acid] the value was 1560 nM; for `CC1(C)Cc2c(sc3nc(C(=O)O)c(I)n23)C(C)(C)C1` [Example 199, 3-Iodo-9,9,11,11-tetramethyl-7-thia-2,5-diazatricyclo[6.4.0.0^2,6]dodeca-1(8),3,5-triene-4-carboxylic acid], 530 nM; for `O=C(O)c1cn2c(n1)sc1cc(SC(F)(F)F)ccc12` [Example 201, 10-[(Trifluoromethyl)sulfanyl]-7-thia-2,5-diazatricyclo[6.4.0.0^2,6]dodeca-1(8),3,5,9,11-pentaene-4-carboxylic acid], 1470 nM.

Consider `CN(C)Cc1c(C(=O)O)nc2sc3c(Cl)c(Cl)ccc3n12` [Example 203, 9,10-Dichloro-3-[(dimethylamino)methyl]-7-thia-2,5-diazatricyclo[6.4.0.0^2,6]dodeca-1(8),3,5,9,11-pentaene-4-carboxylic acid], for which the concentration for half-maximal inhibition (IC50) turned out to be 780 nM. For `O=C(O)c1cn2c(n1)sc1c(Cl)cc(Cl)cc12` [Example 204, 9,11-Dichloro-7-thia-2,5-diazatricyclo[6.4.0.0^2,6]dodeca-1(8),3,5,9,11-pentaene-4-carboxylic acid] the value was 940 nM. The result for `CC(C)(C)c1ccc2c(c1)sc1nc(C(=O)O)cn12` [Example 206, 10-tert-Butyl-7-thia-2,5-diazatricyclo[6.4.0.0^2,6]dodeca-1(8),3,5,9,11-pentaene-4-carboxylic acid] reads 960 nM; that for `CC1(C)Cc2c(sc3nc(C(=O)O)c(Cl)n23)C(C)(C)C1` [Example 207, 3-Chloro-9,9,11,11-tetramethyl-7-thia-2,5-diazatricyclo[6.4.0.0^2,6]dodeca-1(8),3,5-triene-4-carboxylic acid], 780 nM.

Turning to `O=C(O)c1cn2c(n1)sc1cc(OCc3ccccc3)ccc12` [Example 208, 10-(Benzyloxy)-7-thia-2,5-diazatricyclo[6.4.0.0^2,6]dodeca-1(8),3,5,9,11-pentaene-4-carboxylic acid], the IC50 is 2260 nM. For `O=C(O)c1cn2c(n1)sc1c(F)c(F)ccc12` [Example 209, 9,10-Difluoro-7-thia-2,5-diazatricyclo[6.4.0.0^2,6]dodeca-1(8),3,5,9,11-pentaene-4-carboxylic acid] the value was 1020 nM; for `O=C(O)c1cn2c(n1)sc1c(Br)cccc12` [Example 212, 9-Bromo-7-thia-2,5-diazatricyclo[6.4.0.0^2,6]dodeca-1(8),3,5,9,11-pentaene-4-carboxylic acid], 700 nM. In the case of `O=C(O)c1cn2c(n1)sc1c(Cl)c(OC(F)(F)F)ccc12` [Example 214, 9-Chloro-10-(trifluoromethoxy)-7-thia-2,5-diazatricyclo[6.4.0.0^2,6]dodeca-1(8),3,5,9,11-pentaene-4-carboxylic acid], the 50% inhibitory concentration (IC50) amounted to 640 nM. The result for `COc1c(Cl)ccc2c1sc1nc(C(=O)O)cn12` [Example 217, 10-Chloro-9-methoxy-7-thia-2,5-diazatricyclo[6.4.0.0^2,6]dodeca-1(8),3,5,9,11-pentaene-4-carboxylic acid] reads 1090 nM; that for `COc1ccc2c(sc3nc(C(=O)O)cn32)c1Cl` [Example 218, 9-Chloro-10-methoxy-7-thia-2,5-diazatricyclo[6.4.0.0^2,6]dodeca-1(8),3,5,9,11-pentaene-4-carboxylic acid], 1580 nM; that for `CS(=O)(=O)NC(=O)c1cn2c(n1)sc1c(Cl)c(OC(F)(F)F)ccc12` [Example 220, 9-Chloro-N-methanesulfonyl-10-(trifluoromethoxy)-7-thia-2,5-diazatricyclo[6.4.0.0^2,6]dodeca-1(8),3,5,9,11-pentaene-4-carboxamide], 770 nM.

Regarding `CC1(C)Cc2c(sc3nc(C(=O)O)c(Br)n23)C(C)(C)C1` [Example 222, 3-Bromo-9,9,11,11-tetramethyl-7-thia-2,5-diazatricyclo[6.4.0.0^2,6]dodeca-1(8),3,5-triene-4-carboxylic acid], the IC50 worked out at 690 nM. `CC1(C)Cc2c(sc3nc(C(=O)O)c(C4CN(C(=O)OC(C)(C)C)C4)n23)C(C)(C)C1` [Example 225, 3-{1-[(tert-Butoxy)carbonyl]azetidin-3-yl}-9,9,11,11-tetramethyl-7-thia-2,5-diazatricyclo[6.4.0.0^2,6]dodeca-1(8),3,5-triene-4-carboxylic acid]: the IC50 is 310 nM. Regarding `O=C(O)C1CN2C(=N1)Sc1c2ccc(F)c1Cl` (centres unmarked) [Example 228, 9-Chloro-10-fluoro-7-thia-2,5-diazatricyclo[6.4.0.0^2,6]dodeca-1(8),5,9,11-tetraene-4-carboxylic acid], the IC50 was determined as 260 nM.

Usually IC50 stands for the concentration needed to halve the response being measured.
